Measurements: US7956194B2, “Microbiocidal (E.G. fungicidal) 1,2,3-triazole derivatives” (Syngenta Crop Protection, Inc., priority 2002, dated 2011)

melting point [°C]	SMILES
94.6 to 95.4	CC(C)CC(C)c1ccccc1NC(=O)c1nn(C)nc1C(F)(F)F (centres unmarked) [Compound 2.219, 2-methyl-5-trifluoromethyl-2H-1,2,3-triazole-4-carboxylic acid [2-(1,3-dimethyl-butyl)-phenyl]-amide]
155 to 156	Cn1nc(C(=O)Nc2cc(Cl)ccc2-c2ccccc2)c(C(F)F)n1 [Compound 3.017, 5-difluoromethyl-2-methyl-2H-1,2,3-triazole-4-carboxylic acid (4-chloro-biphenyl-2-yl)-amide]
